Assay results: patent US11028090B2 (Dong Wha Pharm. Co., Ltd., priority 2017, dated 2021)
Read-outs that look alike come from different tables or passages of the source.

Biological target: BRD4 (BD1+BD2) bromodomain (Homo sapiens (Human), UniProt O60885)
Test: BRD4 binding inhibition (AlphaScreen, GST-BRD4 vs tetraacetylated histone H4 peptide)
Description: A mixture comprising 100 nM GST-BRD4 (BD1+BD2) and 100 nM biotinylated acetyl-histone H4 (Lys5,8,12,16) peptide was prepared in assay buffer (50 mM HEPES pH 7.4; 25 mM NaCl; 0.05% Tween 20; 0.1% bovine serum albumin (BSA); 10 mM dithiothreitol (DTT)). After adding 6 μl of the mixture to the diluent, 6 μl of the pre-mixed AlphaLISA Glutathione Acceptor Beads and AlphaScreen Streptavidin Donor Beads (PerkinElmer, 10 μg/ml in assay buffer, respectively) was added thereto. The samples were incubated in the dark at room temperature for 30 minutes (shaking at 300 rpm). Then, the signals were measured with PerkinElmer Envision HTS Multilabel Reader using an alpha screen protocol of PerkinElmer. Each plate contained the negative control in which biotinylated acetyl-histone H4 peptide and GST-BRD4 (BD1+BD2) were replaced by assay buffer. In the case of using the software GraphPad Prism for calculation, the negative control point was input as a low standard value. The positive control (probe molecule l-BET762 containing protein/peptide mixture) proceeded to pipetting.

[1] = GST-BRD4 (BD1+BD2) / biotinylated acetyl-histone H4 (Lys5,8,12,16) peptide, read-out: IC50, BRD4 binding inhibition
[2] = GST-BRD4 (BD1+BD2) vs biotinylated acetyl-histone H4 peptide, AlphaScreen, read-out: BRD4 IC50

| Compound | IC50 [1] | IC50 [2] |
| --- | --- | --- |
| COCCOc1ccc2c(c1)nc(NCCCCNC(=O)[C@@H](N)C(C)C)c1nnc(C)n12 (stereo in doubt) [Example 397, 2-amino-N-{4-[7-(2-methoxy-ethoxy)-1-methyl-[1,2,4]triazolo[4,3-a]quinoxaline-4-ylamino]-butyl}-3-methyl-butyramide] | ≤ 50 nM | 29 nM |
| Cc1nnc2c(NCCCCNC(=O)[C@H](O)C(C)C)nc3ccccc3n12 [Example 9, 2-(R)-hydroxy-N-[4-(1-methyl-[1,2,4]triazolo[4,3-a]quinoxaline-4-ylamino)-butyl]-3-methyl-butyramide] | ≤ 50 nM | 40 nM |
| Cc1cccc(C)c1C(=O)NCCCCNc1nc2ccccc2n2c(C)nnc12 [Example 13, 2,6-dimethyl-N-[4-(1-methyl-[1,2,4]triazolo[4,3-a]quinoxaline-4-ylamino)-butyl]-benzamide] | – | 57 nM |
| Cc1nnc2c(NCCCCNC(=O)c3ccc(Cl)cc3)nc3ccccc3n12 [Example 14, 4-chloro-N-[4-(1-methyl-[1,2,4]triazolo[4,3-a]quinoxaline-4-ylamino)-butyl]-benzamide] | ≤ 50 nM | 41 nM |
| Cc1nnc2c(NCCCCNC(=O)c3cccc(Cl)c3)nc3ccccc3n12 [Example 15, 3-chloro-N-[4-(1-methyl-[1,2,4]triazolo[4,3-a]quinoxaline-4-ylamino)-butyl]-benzamide] | ≤ 50 nM | 27 nM |
| Cc1nnc2c(NCCCCNC(=O)c3ccc(Cl)c(Cl)c3)nc3ccccc3n12 [Example 16, 3,4-dichloro-N-[4-(1-methyl-[1,2,4]triazolo[4,3-a]quinoxaline-4-ylamino)-butyl]-benzamide] | ≤ 50 nM | 44 nM |
| Cc1nnc2c(NCCCCNC(=O)c3cccc(Cl)c3Cl)nc3ccccc3n12 [Example 17] | – | 51 nM |
| Cc1nnc2c(NCCCCNC(=O)c3ccc(Cl)nc3Cl)nc3ccccc3n12 [Example 19, 2,6-dichloro-N-[4-(1-methyl-[1,2,4]triazolo[4,3-a]quinoxaline-4-ylamino)-butyl]-nicotinamide] | ≤ 50 nM | 36 nM |
| Cc1nnc2c(NCCCCNC(=O)c3ccc(Cl)nc3)nc3ccccc3n12 [Example 20, 6-chloro-N-[4-(1-methyl-[1,2,4]triazolo[4,3-a]quinoxaline-4-ylamino)-butyl]-nicotinamide] | ≤ 50 nM | 43 nM |
| Cc1ccc(C(=O)NCCCCNc2nc3ccccc3n3c(C)nnc23)c(Cl)n1 [Example 21, 2-chloro-6-methyl-N-[4-(1-methyl-[1,2,4]triazolo[4,3-a]quinoxaline-4-ylamino)-butyl]-nicotinamide] | – | 57 nM |
| Cc1nnc2c(NCCCCNC(=O)NC(C)(C)C)nc3ccccc3n12 [Example 22, 1-tert-butyl-3-[4-(1-methyl-[1,2,4]triazolo[4,3-a]quinoxaline-4-ylamino)-butyl]-urea] | – | 81 nM |
| Cc1nnc2c(NCCCCNC(=O)Nc3cccc(F)c3)nc3ccccc3n12 [Example 24, 1-(3-fluoro-phenyl)-3-[4-(1-methyl-[1,2,4]triazolo[4,3-a]quinoxaline-4-ylamino)-butyl]-urea] | – | 67 nM |
| Cc1nnc2c(NCCCCNC(=O)OCc3ccccc3)nc3ccccc3n12 [Example 25, [4-(1-methyl-[1,2,4]triazolo[4,3-a]quinoxaline-4-ylamino)-butyl]-carbamic acid benzylester] | – | 55 nM |
| Cc1nnc2c(NCCCCNC(=O)C(C)(C)C)nc3cc(Cl)c(Cl)cc3n12 [Example 28, N-[4-(7,8-dichloro-1-methyl-[1,2,4]triazolo[4,3-a]quinoxaline-4-ylamino)-butyl]-2,2-dimethyl-propionamide] | – | 96 nM |
| Cc1nnc2c(NCCCCNC(=O)C(C)C)nc3cc(Cl)c(Cl)cc3n12 [Example 29, N-[4-(7,8-dichloro-1-methyl-[,2,4]triazolo[4,3-a]quinoxaline-4-ylamino)-butyl]-isobutyramide] | – | 98 nM |
| Cc1nnc2c(NCCCCNC(=O)CC(C)C)nc3cc(Cl)c(Cl)cc3n12 [Example 30, N-[4-(7,8-dichloro-1-methyl-[1,2,4]triazolo[4,3-a]quinoxaline-4-ylamino)-butyl]-3-methyl-butyramide] | ≤ 10 nM | – |
| Cc1nnc2c(NCCCCNC(=O)c3ccccc3)nc3cc(Cl)c(Cl)cc3n12 [Example 31, N-[4-(7,8-dichloro-1-methyl-[1,2,4]triazolo[4,3-a]quinoxaline-4-ylamino)-butyl]-benzamide] | ≤ 50 nM | 31 nM |
| Cc1nnc2c(NCCCCNC(=O)c3ccccc3Cl)nc3cc(Cl)c(Cl)cc3n12 [Example 32] | – | 89 nM |
| Cc1cc2nc(NCCCCNC(=O)OC(C)(C)C)c3nnc(C)n3c2cc1C [Example 34, [4-(1,7,8-trimethyl-[1,2,4]triazolo[4,3-a]quinoxaline-4-ylamino)-butyl]-carbamic acid-tert-butylester] | – | 81 nM |
| Cc1nnc2c(NCCCCNC(=O)[C@H](O)C(C)C)nc3cc(F)c(F)cc3n12 [Example 38, N-[4-(7,8-difluoro-1-methyl-[1,2,4]triazolo[4,3-a]quinoxaline-4-ylamino)-butyl]-2-(R)-hydroxy-3-methyl-butyramide] | – | 97 nM |
| Cc1ccc2nc(NCCCCNC(=O)OC(C)(C)C)c3nnc(C)n3c2c1 [Example 40, [4-(1,8-dimethyl-[1,2,4]triazolo[4,3-a]quinoxaline-4-ylamino)-butyl]-carbamic acid-tert-butylester] | – | 69 nM |
| Cc1ccc2nc(NCCCCNC(=O)NC(C)(C)C)c3nnc(C)n3c2c1 [Example 44, 1-tert--butyl-3-[4-(1,8-dimethyl-[1,2,4]triazolo[4,3-a]quinoxaline-4-ylamino)-butyl]-urea] | – | 72 nM |
| Cc1ccc2nc(NCCCCNC(=O)c3ccccc3)c3nnc(C)n3c2c1 [Example 45, N-[4-(1,8-dimethyl-[1,2,4]triazolo[4,3-a]quinoxaline-4-ylamino)-butyl]-benzamide] | ≤ 50 nM | – |
| Cc1ccc2nc(NCCCCNC(=O)Nc3ccccc3)c3nnc(C)n3c2c1 [Example 46, 1-[4-(1,8-dimethyl-[1,2,4]triazolo[4,3-a]quinoxaline-4-ylamino)-butyl]-3-phenyl-urea] | – | 73 nM |
| Cc1nnc2c(NCCCCNC(=O)OC(C)(C)C)nc3ccc(F)cc3n12 [Example 47, [4-(8-fluoro-1-methyl-[1,2,4]triazolo[4,3-a]quinoxaline-4-ylamino)-butyl]-carbamic acid-tert-butylester] | ≤ 50 nM | 42 nM |
| Cc1nnc2c(NCCCCNC(=O)c3ccccc3)nc3ccc(F)cc3n12 [Example 51, N-[4-(8-fluoro-1-methyl-[1,2,4]triazolo[4,3-a]quinoxaline-4-ylamino)-butyl]-benzamide] | ≤ 50 nM | – |
| Cc1nnc2c(NCCCCNC(=O)NC(C)(C)C)nc3ccc(F)cc3n12 [Example 52, 1-tert-butyl-3-[4-(8-fluoro-1-methyl-[1,2,4]triazolo[4,3-a]quinoxaline-4-ylamino)-butyl]-urea] | – | 70 nM |
| Cc1nnc2c(NCCCCNC(=O)Nc3ccccc3)nc3ccc(F)cc3n12 [Example 53, 1-[4-(8-fluoro-1-methyl-[1,2,4]triazolo[4,3-a]quinoxaline-4-ylamino)-butyl]-3-phenyl-urea] | – | 60 nM |
